# Test results: ChEMBL document CHEMBL1201862, “PubChem BioAssay data set” (2004)
# Calls of active or inactive are those of the source.
# Tests used:
# [1] = molecular target: NACHT, LRR and PYD domains-containing protein 1 (Homo sapiens, UniProt Q9C000); test: NALP1 inhibitors in yeast, dose response, luminescent (AID 488860); format: functional
# Saccharomyces cerevisiae = test: S. cerevisiae Caspase-1/ASC signal blockers IC50, NALP1 inhibitor project selectivity test (AID 488863); format: functional, organism-based
# [2] = molecular target: G-protein coupled receptor 55 (Homo sapiens, UniProt Q9Y2T6); test: SAR analysis of selective Agonists of GPR55 using an Image-Based Assay - Set 2. [Related pubchem assays (depositor defined):AID1961, AID1965]; format: functional
# Cannabinoid receptor 1 [3] = molecular target: T1, Cannabinoid receptor 1 (Homo sapiens, UniProt P21554); test: SAR analysis of agonists of the Cannabinoid Receptor 1 using an Image-Based Assay - Set 3. [Related pubchem assays (depositor defined):AID1961, AID1965]; format: functional
# Cannabinoid receptor 2 [4] = molecular target: T2, Cannabinoid receptor 2 (Homo sapiens, UniProt P34972); test: SAR analysis of agonists of the Cannabinoid Receptor 2 using an Image-Based Assay - Set 2. [Related pubchem assays (depositor defined):AID1961, AID1965]; format: functional
# Cannabinoid receptor 2 [5] = molecular target: T2, Cannabinoid receptor 2; test: SAR analysis of antagonists of the Cannabinoid Receptor 2 using an Image-Based Assay - Set 2. [Related pubchem assays (depositor defined):AID1961, AID1965]; format: functional
# Cannabinoid receptor 1 [6] = molecular target: T1, Cannabinoid receptor 1; test: SAR analysis of antagonists of the Cannabinoid Receptor 1 using an Image-Based Assay - Set 3. [Related pubchem assays (depositor defined):AID1961, AID1965]; format: functional
# [7] = molecular target: T3, G-protein coupled receptor 35 (Homo sapiens, UniProt Q9HC97); test: SAR analysis of Antagonists of the GPR35 Receptor using an Image-Based Assay - Set 4. [Related pubchem assays (depositor defined):[…]]; format: functional
# [8] = molecular target: T3, G-protein coupled receptor 35; test: SAR analysis of Agonists of the GPR35 Receptor using an Image-Based Assay - Set 3. [Related pubchem assays (depositor defined):AID1961, AID1965]; format: functional
# [9] = Luminescence Cell-Based Dose Response HTS to Identify Inhibitors of 5'UTR Stem-Loop Driven Prion Protein mRNA Translation in H4 Neuroglioblastoma Cells. [Related pubchem assays: 1827 (Project Summary), 1813 (Primary HTS)]; format: functional
# Mu-type opioid receptor = Mu-type opioid receptor (Homo sapiens, UniProt P35372); test: HTS Image-Based Screen for Agonists of the MOR Receptor. [Related pubchem assays (depositor defined):AID1777, AID1785, AID1786, AID2133]; format: functional;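 also: imaging of beta-arrestin GFP recruitment into spots after receptor activation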
# Beta-galactosidase = Beta-galactosidase (Escherichia coli, UniProt Q8VNN2); format: functional
# Vero = test: mammalian cell viability reduction – secondary assay, cytotoxicity control for West Nile virus antiviral project, dose response (AID 1650); format: functional; details: Chlorocebus sabaeus
# [10] = molecular target: T4, Kappa-type opioid receptor (Homo sapiens, UniProt P41145); format: functional
# [11] = molecular target: E3 ubiquitin-protein ligase Mdm2/Protein Mdm4 (Homo sapiens, UniProt O15151+Q00987); test: disruption of Mdm2/MdmX protein binding – luminescence detection, dose response (AID 504593); format: functional
# [12] = luciferase reporter signal suppression in cells – H4 neuroglioma cells, luminescence, dose response (AID 1990); format: functional, cell-based
# [13] = molecular target: T5, Delta-type opioid receptor (Homo sapiens, UniProt P41143); test: HTS Image-Based Screen for Agonists of the DOR Receptor. [Related pubchem assays (depositor defined):AID1777, AID1786, AID2133]; format: functional
# [14] = molecular target: T5, Delta-type opioid receptor; test: HTS Image-Based Screen for Antagonists of the DOR Receptor. [Related pubchem assays (depositor defined):AID1777, AID1785, AID1786, AID2133]; format: functional
# [15] = alpha-synuclein stem-loop luciferase translation blockers – H4 neuroglioma cells, luminescence, confirmation (AID 1988); format: functional, cell-based
# [16] = molecular target: T4, Kappa-type opioid receptor; format: functional; remark: listed apart in the source
# [17] = molecular target: T6, Polyadenylate-binding protein 1 (Homo sapiens, UniProt P11940); test: MLLE domain peptide-binding blockers, IC50 – biochemical, fluorescence polarization, FITC-PAM2 peptide, dose response (AID 602259); format: functional; details: read-out: IC50_Mean
# [18] = molecular target: T7, Sentrin-specific protease 1 (Homo sapiens, UniProt Q9P0U3); test: Dose response confirmation of small molecule inhibitors of the catalytic domain of the SUMO protease, SENP1 in a FRET assay.; format: functional; details: read-out: IC50_Mean
# T7 sequence (Q9P0U3 whole entry): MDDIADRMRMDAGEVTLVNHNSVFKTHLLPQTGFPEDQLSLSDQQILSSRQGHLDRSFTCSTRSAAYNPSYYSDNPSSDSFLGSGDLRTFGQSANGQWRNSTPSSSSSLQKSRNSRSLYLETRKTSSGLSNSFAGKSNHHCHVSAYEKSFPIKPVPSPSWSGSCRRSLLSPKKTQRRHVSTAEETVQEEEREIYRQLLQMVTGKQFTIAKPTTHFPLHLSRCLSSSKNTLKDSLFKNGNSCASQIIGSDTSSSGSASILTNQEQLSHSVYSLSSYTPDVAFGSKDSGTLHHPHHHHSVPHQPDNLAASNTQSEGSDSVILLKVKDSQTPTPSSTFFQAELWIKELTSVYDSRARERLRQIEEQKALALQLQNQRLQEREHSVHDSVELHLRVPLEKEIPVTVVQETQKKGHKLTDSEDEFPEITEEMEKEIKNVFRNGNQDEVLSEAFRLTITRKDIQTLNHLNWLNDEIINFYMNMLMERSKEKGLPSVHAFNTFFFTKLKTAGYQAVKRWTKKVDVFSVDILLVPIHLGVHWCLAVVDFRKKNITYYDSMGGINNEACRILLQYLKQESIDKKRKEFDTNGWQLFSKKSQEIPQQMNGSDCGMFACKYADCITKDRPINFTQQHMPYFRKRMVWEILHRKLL
# [19] = molecular target: T6, Polyadenylate-binding protein 1; test: MLLE binding blockers, Cy5 peptide tracer – biochemical, fluorescence polarization, Cy5-PAM2 peptide, secondary, miRNA deadenylation inhibitor project, dose response (AID 602260); format: functional; details: read-out: IC50_Mean
# [20] = molecular target: Female germline-specific tumor suppressor gld-1 (Caenorhabditis elegans, UniProt Q17339); test: blockers of GLD-1/TGE RNA complex formation – biochemical, fluorescence polarization, C. elegans, dose response (AID 2802);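 also: fluorescence polarization of labeled TGE RNA bound by purified gld-1 protein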
# [21] = molecular target: T7, Sentrin-specific protease 1; test: SENP1 catalytic domain blockers, concentration series – biochemical, kinetic FRET, dose response (AID 651697); format: functional; details: read-out: IC50_Mean
# Protein Rev = Protein Rev (Human immunodeficiency virus type 1 group M subtype B (isolate HXB2)(HIV-1), UniProt P04618); test: blockers of HIV Rev/RRE RNA complex – biochemical, fluorescence polarization, HIV-1, dose response (AID 434976); set-up: species or system Human immunodeficiency virus 1
# [22] = molecular target: T6, Polyadenylate-binding protein 1; test: PABP inhibition in translation initiation, SAR follow-up (AID 435018); format: functional
# [23] = molecular target: Eukaryotic translation initiation factor 4H (Homo sapiens, UniProt Q15056); test: inhibitors of translation initiation factor eIF4H – SAR follow-up (AID 435011); format: functional
# Troponin, cardiac muscle = Troponin, cardiac muscle (Homo sapiens, UniProt P19429+P45379+P63316); test: Fluorescence-based biochemical high throughput dose response assay for activators of the calcium sensitivity of cardiac Regulated Thin Filaments (RTF). [Related pubchem assays (depositor defined):AID493008, AID493018, AID504382, AID504383]; format: protein-complex assay
# Paired box protein Pax-8 = Paired box protein Pax-8 (Homo sapiens, UniProt Q06710); test: PAX8 transcriptional activity inhibition in RMG-I – RMG-I cells, luciferase, cherry-pick, dose response (AID 687027); format: functional, cell-based;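 also: luciferase reporter driven by Pax8 target thyroperoxidase promoter measured by SteadyGlo luminescence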
# Protein S100-A4 = Protein S100-A4 (Homo sapiens, UniProt P26447); test: human S100A4 peptide interaction inhibition curves – biochemical, fluorescence polarization, cherry-picked hits, dose response (AID 687001); format: functional
# HeLa = test: viability loss in HeLa cells – cell-based, 24 h, cherry-picked samples, cytotoxicity control, dose response (AID 504726); format: functional; details: Homo sapiens;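 also: potency for cytotoxicity as loss of luminescence signal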
# ORF 73 = ORF 73 (Human herpesvirus 8, UniProt O40947); test: KSHV LANA DNA-binding disruption – biochemical, fluorescence polarization, cherry-picked samples, dose response (AID 504725); set-up: species or system Human gammaherpesvirus 8;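 also: fluorescence polarization of a labeled DNA duplex reporting LANA DNA binding; potency is for inhibitors that block LANA binding to the DNA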
# Chain of ORF 73 (O40947 whole entry): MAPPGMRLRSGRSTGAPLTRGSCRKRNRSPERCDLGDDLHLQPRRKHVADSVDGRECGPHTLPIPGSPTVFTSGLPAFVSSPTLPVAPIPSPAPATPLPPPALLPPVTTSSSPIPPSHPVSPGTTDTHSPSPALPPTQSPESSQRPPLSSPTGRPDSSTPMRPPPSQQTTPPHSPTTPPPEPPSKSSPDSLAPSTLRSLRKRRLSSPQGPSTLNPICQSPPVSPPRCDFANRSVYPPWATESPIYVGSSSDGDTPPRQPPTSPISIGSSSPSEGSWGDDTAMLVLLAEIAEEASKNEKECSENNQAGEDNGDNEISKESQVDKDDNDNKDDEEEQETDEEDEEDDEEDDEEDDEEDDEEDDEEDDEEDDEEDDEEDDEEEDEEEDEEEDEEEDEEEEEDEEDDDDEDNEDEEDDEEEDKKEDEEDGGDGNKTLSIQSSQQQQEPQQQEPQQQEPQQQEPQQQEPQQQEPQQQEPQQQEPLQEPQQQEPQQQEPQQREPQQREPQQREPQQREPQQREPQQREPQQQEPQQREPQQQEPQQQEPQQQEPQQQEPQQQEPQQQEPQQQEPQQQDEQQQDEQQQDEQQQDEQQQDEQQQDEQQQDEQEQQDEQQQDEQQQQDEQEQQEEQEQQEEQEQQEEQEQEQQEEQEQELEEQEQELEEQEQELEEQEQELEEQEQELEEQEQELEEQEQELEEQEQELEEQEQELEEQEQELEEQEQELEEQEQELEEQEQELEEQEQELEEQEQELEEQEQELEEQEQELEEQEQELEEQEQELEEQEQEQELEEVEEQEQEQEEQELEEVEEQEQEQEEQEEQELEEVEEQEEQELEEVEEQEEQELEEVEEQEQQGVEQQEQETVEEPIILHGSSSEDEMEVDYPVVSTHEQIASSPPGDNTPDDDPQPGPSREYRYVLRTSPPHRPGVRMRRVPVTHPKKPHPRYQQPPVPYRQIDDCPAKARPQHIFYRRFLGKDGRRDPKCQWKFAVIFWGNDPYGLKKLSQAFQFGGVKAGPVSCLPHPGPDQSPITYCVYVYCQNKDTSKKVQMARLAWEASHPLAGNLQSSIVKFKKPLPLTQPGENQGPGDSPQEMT
# T6 sequence (P11940 whole entry, the tested form may be a part): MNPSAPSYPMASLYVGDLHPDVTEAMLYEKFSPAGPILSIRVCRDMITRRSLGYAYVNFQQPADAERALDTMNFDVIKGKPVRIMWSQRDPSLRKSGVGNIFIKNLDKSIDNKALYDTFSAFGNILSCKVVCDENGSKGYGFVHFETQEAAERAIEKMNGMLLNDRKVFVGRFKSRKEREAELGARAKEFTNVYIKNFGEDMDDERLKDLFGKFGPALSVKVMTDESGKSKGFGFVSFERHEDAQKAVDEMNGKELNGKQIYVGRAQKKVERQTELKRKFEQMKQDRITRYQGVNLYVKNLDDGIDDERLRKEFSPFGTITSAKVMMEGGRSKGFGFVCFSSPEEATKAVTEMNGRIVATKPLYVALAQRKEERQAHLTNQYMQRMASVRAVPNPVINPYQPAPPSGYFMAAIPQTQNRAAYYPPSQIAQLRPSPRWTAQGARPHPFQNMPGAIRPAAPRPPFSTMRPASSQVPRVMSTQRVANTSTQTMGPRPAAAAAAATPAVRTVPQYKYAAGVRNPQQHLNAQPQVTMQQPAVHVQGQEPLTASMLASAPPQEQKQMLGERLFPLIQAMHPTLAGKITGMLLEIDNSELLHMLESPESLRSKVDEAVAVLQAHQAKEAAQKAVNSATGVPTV
# T5 sequence (P41143 whole entry): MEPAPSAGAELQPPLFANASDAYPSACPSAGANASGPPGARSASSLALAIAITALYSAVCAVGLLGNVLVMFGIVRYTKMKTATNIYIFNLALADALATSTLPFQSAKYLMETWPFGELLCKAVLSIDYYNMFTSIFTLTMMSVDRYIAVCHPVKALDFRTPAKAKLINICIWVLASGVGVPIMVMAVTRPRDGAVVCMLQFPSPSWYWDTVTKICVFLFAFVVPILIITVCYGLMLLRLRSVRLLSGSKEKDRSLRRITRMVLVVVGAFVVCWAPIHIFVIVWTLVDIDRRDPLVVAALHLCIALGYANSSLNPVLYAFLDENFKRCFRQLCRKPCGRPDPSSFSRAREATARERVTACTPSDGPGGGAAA
# T2 sequence (P34972 whole entry): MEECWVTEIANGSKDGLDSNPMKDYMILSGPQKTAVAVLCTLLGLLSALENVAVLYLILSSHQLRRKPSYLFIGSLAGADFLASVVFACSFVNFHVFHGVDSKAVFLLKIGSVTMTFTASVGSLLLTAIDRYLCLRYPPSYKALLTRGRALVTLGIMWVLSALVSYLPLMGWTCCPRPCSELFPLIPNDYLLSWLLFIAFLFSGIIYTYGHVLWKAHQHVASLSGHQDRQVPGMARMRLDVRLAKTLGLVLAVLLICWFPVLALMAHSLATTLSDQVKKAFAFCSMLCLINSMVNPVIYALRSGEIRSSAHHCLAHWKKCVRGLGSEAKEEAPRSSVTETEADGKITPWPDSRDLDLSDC
# T3 sequence (Q9HC97 whole entry): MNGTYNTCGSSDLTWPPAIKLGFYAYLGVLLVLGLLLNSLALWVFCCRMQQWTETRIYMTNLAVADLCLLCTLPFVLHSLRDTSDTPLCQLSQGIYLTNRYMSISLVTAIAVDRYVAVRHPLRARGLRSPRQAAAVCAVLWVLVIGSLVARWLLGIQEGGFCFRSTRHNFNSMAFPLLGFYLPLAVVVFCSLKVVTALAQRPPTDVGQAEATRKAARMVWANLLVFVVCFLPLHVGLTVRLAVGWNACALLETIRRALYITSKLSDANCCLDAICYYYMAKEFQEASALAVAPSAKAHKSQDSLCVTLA
# T1 sequence (P21554 whole entry): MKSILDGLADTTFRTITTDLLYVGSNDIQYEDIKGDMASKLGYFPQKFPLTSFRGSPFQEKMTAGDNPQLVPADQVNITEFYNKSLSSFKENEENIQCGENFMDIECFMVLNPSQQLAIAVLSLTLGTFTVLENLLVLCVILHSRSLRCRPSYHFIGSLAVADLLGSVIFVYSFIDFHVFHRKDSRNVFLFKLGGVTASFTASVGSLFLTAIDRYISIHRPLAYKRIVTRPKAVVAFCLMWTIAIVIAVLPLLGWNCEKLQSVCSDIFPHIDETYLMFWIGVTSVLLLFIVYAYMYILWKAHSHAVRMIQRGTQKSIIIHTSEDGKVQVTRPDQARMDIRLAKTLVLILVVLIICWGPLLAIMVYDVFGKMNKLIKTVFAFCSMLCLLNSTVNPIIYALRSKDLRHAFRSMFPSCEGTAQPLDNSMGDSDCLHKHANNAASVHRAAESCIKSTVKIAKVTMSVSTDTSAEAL
# T4 sequence (P41145 whole entry): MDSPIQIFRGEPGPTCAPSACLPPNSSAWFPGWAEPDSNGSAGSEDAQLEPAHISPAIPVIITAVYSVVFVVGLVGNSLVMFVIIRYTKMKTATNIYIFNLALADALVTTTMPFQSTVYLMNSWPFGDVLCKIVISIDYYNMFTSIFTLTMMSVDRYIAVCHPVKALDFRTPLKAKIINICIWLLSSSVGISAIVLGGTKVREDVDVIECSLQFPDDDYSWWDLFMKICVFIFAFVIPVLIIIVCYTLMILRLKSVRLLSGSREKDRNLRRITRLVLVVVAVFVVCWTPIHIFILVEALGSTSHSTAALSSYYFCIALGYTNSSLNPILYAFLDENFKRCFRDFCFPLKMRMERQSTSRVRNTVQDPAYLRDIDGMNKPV
# Chain of Protein Rev (P04618 whole entry): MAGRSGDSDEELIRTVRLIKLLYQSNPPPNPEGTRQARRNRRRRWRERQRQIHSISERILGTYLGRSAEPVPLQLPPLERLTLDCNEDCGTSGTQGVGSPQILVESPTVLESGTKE
# Chain of Mu-type opioid receptor (P35372 whole entry): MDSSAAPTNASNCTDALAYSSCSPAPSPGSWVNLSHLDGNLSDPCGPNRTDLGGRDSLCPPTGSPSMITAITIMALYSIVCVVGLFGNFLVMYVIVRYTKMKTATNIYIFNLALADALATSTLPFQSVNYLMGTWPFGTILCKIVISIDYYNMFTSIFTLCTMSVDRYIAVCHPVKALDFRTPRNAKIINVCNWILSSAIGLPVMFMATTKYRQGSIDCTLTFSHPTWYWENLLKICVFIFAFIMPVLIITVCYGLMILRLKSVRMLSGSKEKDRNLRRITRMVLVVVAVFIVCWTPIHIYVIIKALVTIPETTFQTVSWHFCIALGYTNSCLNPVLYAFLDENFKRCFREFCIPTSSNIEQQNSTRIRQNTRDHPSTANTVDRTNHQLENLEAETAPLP
# Chain of Paired box protein Pax-8 (Q06710 whole entry): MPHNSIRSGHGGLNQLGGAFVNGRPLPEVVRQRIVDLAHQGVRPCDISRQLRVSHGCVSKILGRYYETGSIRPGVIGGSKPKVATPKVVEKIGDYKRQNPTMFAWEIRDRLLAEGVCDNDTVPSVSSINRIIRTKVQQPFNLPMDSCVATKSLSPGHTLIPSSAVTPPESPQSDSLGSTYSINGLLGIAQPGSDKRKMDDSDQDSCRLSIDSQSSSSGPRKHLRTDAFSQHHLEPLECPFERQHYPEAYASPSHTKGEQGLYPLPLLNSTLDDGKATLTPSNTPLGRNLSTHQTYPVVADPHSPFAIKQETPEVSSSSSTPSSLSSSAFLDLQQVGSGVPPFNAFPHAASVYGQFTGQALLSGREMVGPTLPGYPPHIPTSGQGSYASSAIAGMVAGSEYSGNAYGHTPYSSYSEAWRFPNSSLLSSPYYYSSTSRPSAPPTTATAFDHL
# Chain of Protein S100-A4 (P26447 whole entry): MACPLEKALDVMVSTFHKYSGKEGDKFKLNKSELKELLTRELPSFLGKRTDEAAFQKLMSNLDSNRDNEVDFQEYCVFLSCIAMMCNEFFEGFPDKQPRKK
smiles,measurement,setting,value
COc1ccccc1N1CCN(CCCCCCOc2ccc(F)cc2)CC1,IC50,[1],9.66 µM (active)
same,IC50,Saccharomyces cerevisiae,13.2 µM (active)
COc1ccc(S(=O)(=O)N2CCOCC2)cc1NC(=O)c1ccc(Cl)cc1,EC50,[2],138 nM (active)
same,EC50,Cannabinoid receptor 1 [3],5.08 µM (active)
same,EC50,Cannabinoid receptor 2 [4],> 32 µM (inactive)
same,IC50,Cannabinoid receptor 2 [5],> 32 µM (inactive)
same,IC50,Cannabinoid receptor 1 [6],> 32 µM (inactive)
same,IC50,[7],12.3 µM (inactive)
same,EC50,[8],> 32 µM (inactive)
O=[N+]([O-])c1ccccc1S(=O)(=O)Nc1cccc2cccnc12,EC50,[9],11.6 µM (active)
same,EC50,Mu-type opioid receptor,> 32 µM (inactive)
same,EC50,Beta-galactosidase,> 31.5 µM (inactive)
same,CC50,Vero,8.6 µM (active)
same,IC50,[10],> 32 µM
same,IC50,[11],3.73 µM (active)
same,EC50,[12],14.1 µM (active)
same,EC50,[13],> 32 µM (inactive)
same,IC50,[14],> 32 µM (inactive)
same,EC50,[15],> 120 µM (not active)
same,IC50,[16],7.84 µM (active)
O=C1C=C(O)c2cccc3cccc1c23,IC50,[17],34.5 µM (inactive)
same,IC50,[18],8.55 µM (active)
same,IC50,[19],33.1 µM (inactive)
same,IC50,[20],6.13 µM (active)
same,IC50,[21],13.1 µM (active)
same,IC50,Protein Rev,13.9 µM (not active)
CCc1nnc(NC(=O)CSc2ccc(-c3ccco3)nn2)s1,IC50,[22],64.4 µM (active)
same,IC50,[23],9.04 µM (active)
O=C(c1ccc(COc2ccccc2Br)o1)N1N=C(C(F)F)CC1(O)C(F)F (stereo unspecified),EC50,"Troponin, cardiac muscle",> 71.5 µM (inactive)
COc1cccc2c1C(=O)c1c(O)c3c(c(O)c1C2=O)C[C@](O)(C(C)=O)C[C@H]3O[C@@H]1C[C@@H](N)[C@@H](O)[C@@H](C)O1,EC50,[9],0.102 µM (active)
same,AC50,Paired box protein Pax-8,2.84 µM (active)
same,AC50,Protein S100-A4,290 nM (active)
same,EC50,[12],< 0.1 µM (active)
same,EC50,[15],< 0.1 µM (active)
same,AC50,HeLa,3.2 µM (active)
same,AC50,ORF 73,3.01 µM (active)
